In PMC7830900, “Cinnamoyl Sucrose Esters as Alpha Glucosidase Inhibitors for the Treatment of Diabetes” (Molecules, 2021):

Assays:
yeast α-glucosidase = yeast α-glucosidase (Saccharomyces cerevisiae, UniProt P53341); test: In vitro α-glucosidase inhibition assay (PNPG substrate); format: biochemical; parameters: inhibition: dose or concentration left out as unconfirmed; conditions: for IC50: dose-response 0–25 µg/mL
Method: α-Glucosidase inhibition was tested according to previously reported methods with some modifications. […] Fifty microliters of yeast α-glucosidase enzyme solution (0.5 U/mL in phosphate buffer) was added to the wells. The plate was incubated at 37 °C for 15 min. Next, 25 µL of 2.5 mM PNPG (4-nitrophenyl α-D-glucopyranoside) substrate solution (in phosphate buffer) was added. The microplate was incubated at 37 °C for another 15 min. The absorbance was then measured using a microplate reader at 405 nm. The percentage inhibition was calculated using the formula: % inhibition = ΔAbscontrol−ΔAbssample/ΔAbscontrol × 100
All measurements were performed in triplicates and the values. The IC50 values for selected CSEs were calculated by plotting a dose-response curve for a range of concentrations of the CSEs (0–25 µg/mL) for the selected CSEs (data not shown) and regression analysis was done using Graphpad Prism software using the in-built function.

[1] = target: T1, porcine pancreatic α-amylase (Sus scrofa, UniProt P00690); test: In vitro α-amylase inhibition assay (starch/DNSA); format: biochemical; parameters: inhibition: dose or concentration left out as unconfirmed; conditions: for IC50: dose-response 0–25 µg/mL
T1 sequence (P00690 16-511): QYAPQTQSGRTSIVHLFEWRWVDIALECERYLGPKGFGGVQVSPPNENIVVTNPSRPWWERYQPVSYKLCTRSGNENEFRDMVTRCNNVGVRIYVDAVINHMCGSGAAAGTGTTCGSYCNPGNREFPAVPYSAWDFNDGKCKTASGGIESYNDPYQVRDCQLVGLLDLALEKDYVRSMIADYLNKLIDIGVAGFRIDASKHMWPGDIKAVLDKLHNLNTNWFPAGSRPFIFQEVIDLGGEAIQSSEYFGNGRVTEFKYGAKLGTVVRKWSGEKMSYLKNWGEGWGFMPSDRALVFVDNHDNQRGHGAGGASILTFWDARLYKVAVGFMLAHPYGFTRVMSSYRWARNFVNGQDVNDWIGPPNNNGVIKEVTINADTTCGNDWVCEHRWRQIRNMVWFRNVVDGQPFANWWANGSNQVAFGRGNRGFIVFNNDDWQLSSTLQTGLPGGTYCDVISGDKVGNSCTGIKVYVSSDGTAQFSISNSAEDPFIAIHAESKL
Method: α-amylase inhibition was tested using previously reported methods […] The tubes were then incubated at 37 °C for 10 min. Next, 450 µL of 0.5% starch solution was added and the tubes were incubated for a further 20 min at 37 °C. Finally, 500 µL of Dinitro Salicylic Acid (DNSA) reagent was added and the tubes were placed in a boiling water bath for 15 min. The absorbance of the tubes was recorded at 540 nm and the % inhibition calculated using the same formula as for α-glucosidase, % inhibition = ΔAbscontrol−ΔAbssample/ΔAbscontrol × 100
All measurements were performed in triplicates and the values.

STZ-treated mice = tested on: STZ-treated mice; parameters: method as in earlier work; conditions: STZ-treated mice compared to control (starch only) mice; cited from earlier work
[2] = 25 μg/mL, mean ± SD, n = 3, less than 5% inhibition = No Significant Activity

Sequence of yeast α-glucosidase (P53341 whole entry): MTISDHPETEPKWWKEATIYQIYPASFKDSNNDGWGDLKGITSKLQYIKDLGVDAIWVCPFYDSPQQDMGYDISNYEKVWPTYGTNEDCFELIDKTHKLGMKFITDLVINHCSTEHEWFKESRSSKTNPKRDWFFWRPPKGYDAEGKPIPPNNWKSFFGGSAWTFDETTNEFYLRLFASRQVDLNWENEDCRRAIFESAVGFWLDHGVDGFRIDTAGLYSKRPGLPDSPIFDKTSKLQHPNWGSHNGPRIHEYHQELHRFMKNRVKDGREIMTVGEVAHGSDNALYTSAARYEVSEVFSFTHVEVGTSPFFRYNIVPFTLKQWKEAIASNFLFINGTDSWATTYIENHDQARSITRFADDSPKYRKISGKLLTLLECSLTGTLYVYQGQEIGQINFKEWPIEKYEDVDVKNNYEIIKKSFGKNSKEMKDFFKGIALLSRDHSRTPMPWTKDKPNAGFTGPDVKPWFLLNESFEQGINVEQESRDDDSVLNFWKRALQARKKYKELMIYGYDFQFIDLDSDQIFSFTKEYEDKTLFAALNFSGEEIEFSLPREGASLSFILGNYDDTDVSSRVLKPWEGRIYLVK

Structure (SMILES)	inhibition (yeast α-glucosidase)	inhibition [1]	further results
CC1(C)OC[C@@]2(O[C@H]3O[C@@H]4COC(C)(C)O[C@H]4[C@H](O)[C@H]3O1)O[C@H](COC(=O)/C=C/c1ccccc1)[C@@H](OC(=O)/C=C/c1ccccc1)[C@@H]2OC(=O)/C=C/c1ccccc1 [CSE 4]	32 ± 3%	8 ± 4%	–
CC(=O)O[C@@H]1[C@H]2OC(C)(C)OC[C@@]3(O[C@H]2O[C@@H]2COC(C)(C)O[C@@H]12)O[C@H](COC(=O)/C=C/c1ccccc1)[C@@H](OC(C)=O)[C@@H]3OC(=O)/C=C/c1ccccc1 [CSE 6]	46 ± 3%	14 ± 4%	–
O=C(/C=C/c1ccccc1)OC[C@H]1O[C@@](CO)(O[C@H]2O[C@H](CO)[C@@H](O)[C@H](O)[C@H]2O)[C@@H](OC(=O)/C=C/c2ccccc2)[C@@H]1OC(=O)/C=C/c1ccccc1 [CSE 8]	34 ± 4%	16 ± 2%	% α-glucosidase inhibition relative to % α-amylase inhibition (yeast α-glucosidase; 25 μg/mL, selectivity α-glucosidase over α-amylase): higher inhibition of α-glucosidase than α-amylase
COc1cc(/C=C/C(=O)OC[C@H]2O[C@@](CO)(O[C@H]3O[C@H](CO)[C@@H](O)[C@H](OC(=O)/C=C/c4ccc(O)c(OC)c4)[C@H]3O)[C@@H](OC(=O)/C=C/c3ccc(O)c(OC)c3)[C@@H]2OC(=O)/C=C/c2ccc(O)c(OC)c2)ccc1O [FSE 1]	–	–	blood glucose excursion (STZ-treated mice): significantly reduced blood glucose excursion
CC(=O)O[C@@H]1[C@H]2OC(C)(C)OC[C@@]3(O[C@H]2O[C@@H]2COC(C)(C)O[C@@H]12)O[C@H](COC(=O)/C=C/c1ccccc1)[C@@H](OC(=O)/C=C/c1ccccc1)[C@@H]3OC(=O)/C=C/c1ccccc1 [CSE 7]	46 ± 2%	13 ± 7%	–
CC1(C)OC[C@@]2(O[C@H]3O[C@@H]4COC(C)(C)O[C@H]4[C@H](O)[C@H]3O1)O[C@H](COC(=O)/C=C/c1ccccc1)[C@@H](O)[C@@H]2O [CSE 2]	–	–	% α-glucosidase inhibition (yeast α-glucosidase; [2]): did not show significant inhibition activity; % α-amylase inhibition [1, 2]: did not show significant inhibition activity
C[C@H]1O[C@H](O[C@H]2[C@H](O)[C@@H](O)[C@@H](O[C@H]3[C@H](O)[C@@H](O)C(O)O[C@@H]3CO)O[C@@H]2CO)[C@H](O)[C@@H](O)[C@@H]1N[C@H]1C=C(CO)[C@@H](O)[C@H](O)[C@H]1O (stereo partly shown) [acarbose, reference compound]	27 ± 4%	–	inhibition at 25 µg/mL ([1]; read-out: % α-amylase inhibition): 93 ± 2%
CC1(C)OC[C@@]2(O[C@H]3O[C@@H]4COC(C)(C)O[C@H]4[C@H](O)[C@H]3O1)O[C@H](COC(=O)/C=C/c1ccccc1)[C@@H](O)[C@@H]2OC(=O)/C=C/c1ccccc1 [CSE 3]	35 ± 5%	9 ± 5%	–
CC1(C)OCC2OC3OC4(COC(C)(C)OC3C(OC(=O)C=Cc3ccccc3)C2O1)OC(COC(=O)C=Cc1ccccc1)C(OC(=O)C=Cc1ccccc1)C4OC(=O)C=Cc1ccccc1 (stereo not shown) [CSE 5]	77 ± 5%	98 ± 2%	α-glucosidase IC50, fold lower than acarbose (yeast α-glucosidase): over 36 fold; IC50 (yeast α-glucosidase; mean ± SD, n = 3): 9 ± 3 µM; α-amylase IC50, fold less than acarbose [1]: five-fold less; IC50 ([1]; mean ± SD, n = 3): 1 ± 0.2 µM
O=C(C=Cc1ccccc1)OCC1OC(CO)(OC2OC(CO)C(O)C(OC(=O)C=Cc3ccccc3)C2O)C(OC(=O)C=Cc2ccccc2)C1OC(=O)C=Cc1ccccc1 (stereo not shown) [CSE 9]	74 ± 9%	99 ± 1%	α-glucosidase IC50, fold lower than acarbose (yeast α-glucosidase): over 36 fold; IC50 (yeast α-glucosidase; mean ± SD, n = 3): 9 ± 3 µM; α-amylase IC50, fold less than acarbose [1]: five-fold less; IC50 ([1]; mean ± SD, n = 3): 0.8 ± 0.1 µM
